Results taken from paper PMC4465272 (eNeuro, 2015).
“Also recorded” adds a separate entry of the source. Where two headings read alike, the source gives them in different places.

Columns and labels:
[1] = test system: animal pain models; conditions: in vivo, iv; cited from earlier work
[2] = test system: CaV current in rat sensory neurons (DRG); test: cells; assay type: cell-based, rat (adult male Sprague Dawley); conditions: for inhibition at 30 µM: Rattus norvegicus, Neuron
[3] = test system: eEPSCs in the dorsal horn of rat spinal cord; conditions: cited from earlier work
[4] = test system: model of peripheral neuropathy in the rat; conditions: ref Franek et al., 2004; cited from earlier work
Text: Furthermore, GABAB receptor activation inhibits the activity of N-type CaV channels (CaV2.2) and inhibition of N-type channels expressed by nocicept ...

Molecule	effect on neuropathic pain [1]	sensory neurons with CaV current inhibited by baclofen [2]	voltage dependence of CaV current inhibition [2]	inhibition at 30 µM ([2]; read-out: CaV current inhibition in the neuron with the largest Vc1.1 and RgIA response)	inhibition at 30 µM ([2]; read-out: CaV current inhibition in the neuron with the largest baclofen response)	inhibition at 30 µM ([2]; read-out: baclofen-induced CaV current inhibition in seven other neurons)	inhibition at 30 µM ([2]; read-out: postpulse CaV current inhibition)	inhibition at 30 µM ([2]; read-out: prepulse CaV current inhibition)	effect on eEPSCs / EPSPs in dorsal horn [3]	analgesic effect [4]
ziconotide [reference compound]	did not decrease neuropathic pain	–	–	–	–	–	–	–	–	–
NCC(CC(=O)O)c1ccc(Cl)cc1 (stereo not shown) [baclofen, reference compound]	–	95%	voltage-dependent	22%	34%	20 to 24%	12 ± 5.5%	19.2 ± 6.8%	strongly inhibited; also recorded: almost completely blocked	analgesic effects
